According to PMC3147153 (Clinical cancer research : an official journal of the …, 2009):
Where two headings read alike, the source gives them in different places.

What was measured:
[1] = Phase I dose escalation: safety, tolerability, MTD, DLT and adverse events
[2] = two multiple-dose toxicology studies in rats; ref nonclinical studies; cited from earlier work
[3] = Laboratory variables; format: in vivo; settings: patients who received at least three doses; 95% CI −22.1 to −2.6
[4] = tested on: xenografts; settings: cited from earlier work
[5] = in vivo
[6] = i.v. daily for 5 days every 2 weeks; ref 14 (Mita et al.); cited from earlier work
[7] = tested on: CYP3A4; settings: in vitro; ref studies done by Ariad Pharmaceuticals; cited from earlier work
[8] = Whole blood pharmacokinetics, LC-MS/MS, noncompartmental analysis; format: in vivo, patients; settings: for half-life / AUC / Cmax / Vd / clearance: human, whole blood
[9] = tested on: target lesions (solid tumors); assay: Tumor response by Response Evaluation Criteria in Solid Tumors; format: in vivo, patients
[10] = tested on: CYP3A5; settings: in vitro; ref studies done by Ariad Pharmaceuticals; cited from earlier work
[11] = tested on: human tumor cell lines; settings: cited from earlier work
[12] = tested on: 4E-BP1 phosphorylated at Ser^65/Thr^70; assay: 4E-BP1 phosphorylation in peripheral blood mononuclear cells; format: in vivo, patients; settings: PBMC, 7 days after infusion, all doses
[13] = dose level 6.25 mg, 2 patients entered
[14] = dose level 12.5 mg, 3 patients entered
[15] = dose level 25 mg, 4 patients entered
[16] = dose level 50 mg, 16 patients entered
[17] = dose level 75 mg, 17 patients entered
[18] = dose level 100 mg, 4 patients entered

CO[C@H]1C[C@@H]2CC[C@@H](C)[C@@](O)(O2)C(=O)C(=O)N2CCCC[C@H]2C(=O)O[C@H]([C@H](C)C[C@@H]2CC[C@@H](OP(C)(C)=O)[C@H](OC)C2)CC(=O)[C@H](C)/C=C(\C)[C@@H](O)[C@@H](OC)C(=O)[C@H](C)C[C@H](C)/C=C/C=C/C=C/1C [deforolimus]
Abdominal pain, number of adverse events, any grade ([1]; 6.25 mg (n = 2)): 0
Anemia, number of adverse events, any grade ([1]; 6.25 mg (n = 2)): 0
Anorexia, number of adverse events, any grade ([1]; 6.25 mg (n = 2)): 2
Constipation, number of adverse events, any grade ([1]; 6.25 mg (n = 2)): 1
Cough, number of adverse events, any grade ([1]; 6.25 mg (n = 2)): 0
Diarrhea, number of adverse events, any grade ([1]; 6.25 mg (n = 2)): 1
Dysgeusia, number of adverse events, any grade ([1]; 6.25 mg (n = 2)): 1
Fatigue, number of adverse events, any grade ([1]; 6.25 mg (n = 2)): 2
Hyperglycemia, number of adverse events, any grade ([1]; 6.25 mg (n = 2)): 0
Hypophosphatemia, number of adverse events, any grade ([1]; 6.25 mg (n = 2)): 0
Mucosal inflammation, number of adverse events, any grade ([1]; 6.25 mg (n = 2)): 0
Anemia, number of adverse events, any grade ([1]; 12.5 mg (n = 3)): 1
Anorexia, number of adverse events, any grade ([1]; 12.5 mg (n = 3)): 2
Constipation, number of adverse events, any grade ([1]; 12.5 mg (n = 3)): 2
Cough, number of adverse events, any grade ([1]; 12.5 mg (n = 3)): 0
Diarrhea, number of adverse events, any grade ([1]; 12.5 mg (n = 3)): 2
Dysgeusia, number of adverse events, any grade ([1]; 12.5 mg (n = 3)): 0
Fatigue, number of adverse events, any grade ([1]; 12.5 mg (n = 3)): 2
Hyperglycemia, number of adverse events, any grade ([1]; 12.5 mg (n = 3)): 0
Hypophosphatemia, number of adverse events, any grade ([1]; 12.5 mg (n = 3)): 0
Mucosal inflammation, number of adverse events, any grade ([1]; 12.5 mg (n = 3)): 1
Abdominal pain, number of adverse events, any grade ([1]; 25 mg (n = 4)): 0
Anemia, number of adverse events, any grade ([1]; 25 mg (n = 4)): 1
Anorexia, number of adverse events, any grade ([1]; 25 mg (n = 4)): 4
Constipation, number of adverse events, any grade ([1]; 25 mg (n = 4)): 2
Cough, number of adverse events, any grade ([1]; 25 mg (n = 4)): 0
Diarrhea, number of adverse events, any grade ([1]; 25 mg (n = 4)): 2
Dysgeusia, number of adverse events, any grade ([1]; 25 mg (n = 4)): 0
Fatigue, number of adverse events, any grade ([1]; 25 mg (n = 4)): 3
Hyperglycemia, number of adverse events, any grade ([1]; 25 mg (n = 4)): 0
Hypophosphatemia, number of adverse events, any grade ([1]; 25 mg (n = 4)): 0
Mucosal inflammation, number of adverse events, any grade ([1]; 25 mg (n = 4)): 1
Anemia, number of adverse events grade 3 or 4 ([1]; 50 mg (n = 16)): 1
Anemia, number of adverse events, any grade ([1]; 50 mg (n = 16)): 5
Dysgeusia, number of adverse events, any grade ([1]; 50 mg (n = 16)): 3
Hyperglycemia, number of adverse events grade 3 or 4 ([1]; 50 mg (n = 16)): 2
Hyperglycemia, number of adverse events, any grade ([1]; 50 mg (n = 16)): 5
Hypophosphatemia, number of adverse events grade 3 or 4 ([1]; 50 mg (n = 16)): 3
Hypophosphatemia, number of adverse events, any grade ([1]; 50 mg (n = 16)): 4
patients discontinued from the study due to adverse events ([1]; 50 mg dose level): 3 patients
Abdominal pain, number of adverse events grade 3 or 4 ([1]; 75 mg (n = 17)): 1
Abdominal pain, number of adverse events, any grade ([1]; 75 mg (n = 17)): 5
Cough, number of adverse events, any grade ([1]; 75 mg (n = 17)): 3
Hyperglycemia, number of adverse events grade 3 or 4 ([1]; 75 mg (n = 17)): 4
Hyperglycemia, number of adverse events, any grade ([1]; 75 mg (n = 17)): 5
Mucosal inflammation, number of adverse events, any grade ([1]; 75 mg (n = 17)): 12
patients discontinued from the study due to adverse events ([1]; 75 mg dose level): 3 patients
patients who developed grade 1 to 2 mucositis ([1]; 75 mg dose level (17 patients)): Twelve
Abdominal pain, number of adverse events grade 3 or 4 ([1]; 100 mg (n = 4)): 1 (1)
Abdominal pain, number of adverse events, any grade ([1]; 100 mg (n = 4)): 1 (1)
Anemia, number of adverse events, any grade ([1]; 100 mg (n = 4)): 1
Anorexia, number of adverse events, any grade ([1]; 100 mg (n = 4)): 3
Constipation, number of adverse events, any grade ([1]; 100 mg (n = 4)): 3
Cough, number of adverse events, any grade ([1]; 100 mg (n = 4)): 1
Diarrhea, number of adverse events, any grade ([1]; 100 mg (n = 4)): 2
Dysgeusia, number of adverse events, any grade ([1]; 100 mg (n = 4)): 1
Fatigue, number of adverse events, any grade ([1]; 100 mg (n = 4)): 3
Hyperglycemia, number of adverse events, any grade ([1]; 100 mg (n = 4)): 0
Hypophosphatemia, number of adverse events grade 3 or 4 ([1]; 100 mg (n = 4)): 1 (1)
Hypophosphatemia, number of adverse events, any grade ([1]; 100 mg (n = 4)): 1 (1)
Mucosal inflammation, number of adverse events grade 3 or 4 ([1]; 100 mg (n = 4)): 1
Mucosal inflammation, number of adverse events, any grade ([1]; 100 mg (n = 4)): 4
patients who required dosing delays and/or dose reduction secondary to mucositis ([1]; 100 mg dose level): 3 of 4
patients who experienced mucositis ([1]; 100 mg dose level (4 patients)): 4 patients
patients with mucositis grade ≥3 ([1]; 100 mg dose level (4 patients)): 1 patients
patients who experienced an adverse event grade ≥3 ([1]; all 46 patients): 70%
patients who required interruption of treatment or dose reduction on at least one occasion ([1]; all 46 patients): Twenty-eight
deaths thought to be related to deforolimus ([1]; all patients): no deaths thought to be related to deforolimus
patients with serious adverse events ([1]; all patients): 22 patients
serious adverse events ([1]; all patients): Thirty-two
incidence of hypercholesterolemia ([1]; all patients, weekly schedule): 7%
incidence of hyperglycemia ([1]; all patients, weekly schedule): 22%
incidence of hypertriglyceridemia ([1]; all patients, weekly schedule): 9%
No. patients requiring dose interruptions or reductions [1, 13]: 0
No. patients requiring dose reductions [1, 13]: 0
No. patients requiring dose interruptions or reductions, at least possibly related to deforolimus ([1]; dose level 12.5 mg): 0
No. patients requiring dose interruptions or reductions [1, 14]: 2
No. patients requiring dose reductions [1, 14]: 0
No. patients requiring dose interruptions or reductions, at least possibly related to deforolimus ([1]; dose level 25 mg): 0
No. patients requiring dose interruptions or reductions [1, 15]: 3
No. patients requiring dose reductions [1, 15]: 0
No. patients requiring dose interruptions or reductions, at least possibly related to deforolimus ([1]; dose level 50 mg): 5
No. patients requiring dose interruptions or reductions [1, 16]: 8
No. patients requiring dose reductions [1, 16]: 3
No. patients requiring dose interruptions or reductions, at least possibly related to deforolimus ([1]; dose level 75 mg): 9
No. patients requiring dose interruptions or reductions [1, 17]: 12
No. patients requiring dose reductions [1, 17]: 2
No. patients requiring dose interruptions or reductions, at least possibly related to deforolimus ([1]; dose level 100 mg): 3 (3)
No. patients requiring dose interruptions or reductions [1, 18]: 3 (3)
No. patients requiring dose reductions [1, 18]: 2
main dose-limiting toxicity (DLT) ([1]; i.v. once weekly): mucositis
maximum tolerated dose (MTD) ([1]; i.v. over 30 min every 7 days, flat dosing): 75 mg
treatment discontinuations thought to be possibly, probably or definitely related to the study drug ([1]; of six patients with treatment discontinued): 4 patients
factor of increase in odds of more severe mucositis per 10 mg increase in dose ([1]; proportional odds model, univariate, 95% CI 1.21–2.07): 1.58
no effect dose level / severely toxic dose level [2]: neither a no effect dose level nor a severely toxic dose level was identified
estimated slope of nadir platelet count versus dose [3]: −12.3 × 10^3/μL per 10 mg increase i
effect on proliferation of xenografts [4]: inhibits proliferation
Abdominal pain, number of adverse events, any grade ([5]; human): 14
Nausea, number of adverse events, any grade ([5]; human): 26
Rash, number of adverse events, any grade ([5]; human): 22
incidence of anorexia ([5]; human): 67%
incidence of diarrhea ([5]; human): 50%
incidence of fatigue ([5]; human): 76%
incidence of mucositis ([5]; human): 63%
incidence of nausea ([5]; human): 57%
patients who experienced an adverse event ([5]; human): 46 patients
tolerability of the dose level [5]: intolerable
incidence of hypercholesterolemia [6]: 28%
incidence of hyperglycemia [6]: 28%
incidence of hypertriglyceridemia [6]: 41%
metabolism by CYP3A4 [7]: primarily metabolized by CYP3A4
dose proportionality of AUC ([8]; dose range 6.25 to 100 mg): increased less than proportionally with an increase in dose
dose proportionality of Cmax ([8]; dose range 6.25 to 100 mg): increased less than proportionally with an increase in dose
half-life ([8]; intravenous): 45 to 52 h
AUC ([8]; iv, 6.25 mg): 3800 ng·h/mL
Cmax ([8]; iv, 6.25 mg): 329 ng/mL
Vd ([8]; iv, 6.25 mg): 80.3 L
clearance ([8]; iv, 6.25 mg): 28.3 mL/min
half-life ([8]; iv, 6.25 mg): 52.2 h
AUC ([8]; iv, 12.5 mg): 5100 ng·h/mL
Cmax ([8]; iv, 12.5 mg): 394 ng/mL
Vd ([8]; iv, 12.5 mg): 111 L
clearance ([8]; iv, 12.5 mg): 45 mL/min
AUC ([8]; iv, 25 mg): 9000 ng·h/mL
Cmax ([8]; iv, 25 mg): 570 ng/mL
Vd ([8]; iv, 25 mg): 136 L
clearance ([8]; iv, 25 mg): 48.3 mL/min
half-life ([8]; iv, 25 mg): 46.2 h
AUC ([8]; iv, 50 mg): 10700 ng·h/mL
Cmax ([8]; iv, 50 mg): 982 ng/mL
Vd ([8]; iv, 50 mg): 235 L
clearance ([8]; iv, 50 mg): 81.7 mL/min
half-life ([8]; iv, 50 mg): 44.9 h
AUC ([8]; iv, 75 mg): 12700 ng·h/mL
Cmax ([8]; iv, 75 mg): 1200 ng/mL
Vd ([8]; iv, 75 mg): 323 L
clearance ([8]; iv, 75 mg): 107 mL/min
half-life ([8]; iv, 75 mg): 47.3 h
AUC ([8]; iv, 100 mg): 13400 ng·h/mL
Cmax ([8]; iv, 100 mg): 1260 ng/mL
Vd ([8]; iv, 100 mg): 373 L
clearance ([8]; iv, 100 mg): 128 mL/min
half-life ([8]; iv, 100 mg): 46 h
clearance difference, greater in females, estimated from the model ([8]; regression model with dose and gender, SE 0.41): 1.49 L/h
patients with disease progression ([9]; 34 evaluable, after two cycles): 12 patients
patients with stable disease ([9]; 34 evaluable, after two cycles): 21 patients
patients with partial response ([9]; 34 patients evaluable for response): 1 patient
correlation r, AUC versus percent change in sum of target lesions ([9]; after two cycles, n = 32, P = 0.015): −0.43
correlation r, dose versus percent change in sum of target lesions ([9]; after two cycles, n = 33, P = 0.28): −0.19
shrinkage in target lesions ([9]; one patient with transitional cell carcinoma of the bladder, after two cycles): 34%
metabolism by CYP3A5 [10]: to a lesser extent
effect on proliferation of human tumor cell lines [11]: inhibits proliferation
median inhibition of 4E-BP1 phosphorylation [12]: > 70%
